From EP2468882A1, “Aurora kinase polypeptides for identifying fungicidal compounds” (Bayer CropScience AG, priority 2010, dated 2012) come the findings set out here.

In test [1] the target is Komplex aus SEQ ID NO: 12 und SEQ ID NO: 16 (Mycosarcoma maydis (Ustilago maydis), UniProt A0A0D1E894). The test is described as follows: IMAP fluorescence polarisation assay, inhibition of Aurora kinase (AK/AKA complex). Format: biochemical, U. maydis. Conditions: final enzyme concentration 2 ng/µl, final ATP 35 µM, reaction time 50 min. The text has this: Assay 3: Für den kommerziell erhältlichen IMAP Assay (Molecular Devices) sind 2 Substrate für humane Aurorakinasen (Kemptide, Cat #R7331, Sequenz 5TAMRA-LRRASLG-OH und PKAtide, Cat #R7250, Lot #130188, Sequenz 5FAM-GRTGRRNSI-NH2) kommerziell erwerbbar. Der Assay wurde nach Herstellerangaben durchgeführt. • IMAP Progressive Binding Reagent: Cat #R7284, Lot #143859 • IMAP Progressive Binding Buffer A: Cat #R7285, Lot #42898 • IMAP 5x Reaction Buffer: Cat #R7206, Lot #33060
Chain of Komplex aus SEQ ID NO: 12 und SEQ ID NO: 16 (A0A0D1E894 entry or part of it): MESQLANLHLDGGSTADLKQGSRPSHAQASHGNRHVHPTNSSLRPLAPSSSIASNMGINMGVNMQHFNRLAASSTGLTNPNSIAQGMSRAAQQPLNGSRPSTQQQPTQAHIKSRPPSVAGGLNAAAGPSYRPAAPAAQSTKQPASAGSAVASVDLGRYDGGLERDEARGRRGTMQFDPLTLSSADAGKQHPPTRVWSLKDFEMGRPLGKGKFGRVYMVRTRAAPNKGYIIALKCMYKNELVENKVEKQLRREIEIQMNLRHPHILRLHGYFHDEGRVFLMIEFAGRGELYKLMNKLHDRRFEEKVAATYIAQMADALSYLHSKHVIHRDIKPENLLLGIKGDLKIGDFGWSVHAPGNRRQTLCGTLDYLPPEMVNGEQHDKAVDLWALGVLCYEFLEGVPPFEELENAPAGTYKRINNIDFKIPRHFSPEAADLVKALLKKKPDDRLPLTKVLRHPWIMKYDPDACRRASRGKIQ
Der IMAP Fluoreszenz-Polarisations-Assay (Molecular Devices) beruht auf der spezifschen, hochafmen Interaktion zwischen Phosphatgruppen und trivalenten Metallionen. Durch die Kinasereaktion wird ein fluoreszentes Substrat phosphoryliert, welches daraufhin von den in der Stop-Lösung enthaltenen Metall-Kügelchen spezifisch gebunden wird. Durch diese Interaktion erhöht sich die Fluoreszenzpolarisation, was die Bestimmung der Kinaseaktivität ermöglicht. Der Assay wurde nach Angaben des Herstellers wie folgt ausgeführt: • 1 Vol. Inhibitor in 4% DMSO bzw. 4% DMSO • 1 Vol. Enzymlösung • 2 Vol. ATP/Substrat • 12 Vol. Stoplösung • Inkubation bei RT 30 min.
Enzymlösung: z. […]

For a further test, the system named is U. maydis. The test is described as follows: ED50 determination, growth inhibition of U. maydis in liquid culture. It counts as cell-based. Conditions: concentration at which growth in liquid culture is inhibited by 50%; 3 days, 20°C, OD at 600 nm. As for the experimental part:
Der ED50 Wert ist die Konzentration einer Verbindung, bei der das Wachstum von U. maydis in Flüssigkultur zu 50% gehemmt wird. Verbindungen für ED50-Bestimmungen wurden in Methanol + 4 g/l Emulgator (z. B. PS 16 von Bayer AG) zu 666,67facher Endkonzentration gelöst. 15 µl jeder Verbindung werden in 7 Konzentrationen bei getrocknet. Flüssigkulturen von U. maydis in Difco Potato Dextrose Broth (BD, Cat No #254920) wurden auf eine OD600 ~ 0,1 eingestellt und je 200 µl dieser Suspension zugegeben. Die Kulturen wurden 3 Tage bei 20°C, 600 Upm und 80% Luftfeuchte inkubiert. Anschließend wurde die OD bei 600 nm bestimmt und gegen die Inhibitor-Konzentration der Verbindung 1 aufgetragen. Als positive Kontrolle wurde Euparen (Dichlorfluarid; CAS 1085-98-9) verwendet, als negative Kontrolle Methanol + PS 16 ohne Inhibitor. Aus der gemessenen OD600 wurde der ED50-Wert bestimmt (Abb. 5). Der ED50 Wert der Verbindung 1 wurde zu 21,8 ppm ermittelt, der ED50 Wert von Dichlorfluarid wurde zu 1 ppm ermittelt. [formula] [formula] [formula] [formula] [formula] [formula] [formula] [formula] [formula] [formula] [formula] [formula] [formula] [formula] [formula] [formula] [formula] [formula] [formula] [formula] [formula] [formula] [formula] [formula] [formula] [formula] [formula] [formula]

For the molecule `CN[C@@H]1C[C@H]2O[C@@](C)([C@@H]1OC)n1c3ccccc3c3c4c(c5c6ccccc6n2c5c31)C(=O)NC4` [Staurosporin], in test [1], the IC50 came to 2.1 nM. This counts as single-digit nanomolar.
On to `COCCOc1ccc(Nc2ncc(Cl)c(NC3CC3)n2)cc1` [Verbindung 1], for which, in the test on U. maydis, the “ED50 Wert” value is 21,8 ppm. The molecule also yielded a half-inhibitory concentration (IC50) in test [1] of 8.8 nM.
Take `CN(C)S(=O)(=O)N(SC(F)(Cl)Cl)c1ccccc1` [Dichlorfluarid]: in the test on U. maydis, the “ED50 Wert” value is recorded as 1 ppm.
